The values below are quoted from earlier work in PMC3582496 (PLoS Biology, 2013).

In data set [1] the test system is CN.
Data set [2] relates to CN. This is another data set of the same source.

Regarding cyclosporin A [CSA], the “effect on rate of pNpp hydrolysis” value in the data set on CN [1] is “rate increases”. Consider “DLDVPIPGRFDRRVpSVCAE [RII phosphopeptide]”, for which, in the data set with CN [2], the Km (in general, the substrate concentration at which the rate is half of its maximum) was 26 µM and the Vmax (commonly the rate approached at saturating substrate) is 1.7 µmol/min/mg. Take `C=CC[C@@H]1/C=C(\C)C[C@H](C)C[C@H](OC)[C@H]2O[C@@](O)(C(=O)C(=O)N3CCCC[C@H]3C(=O)O[C@H](/C(C)=C/[C@@H]3CC[C@@H](O)[C@H](OC)C3)[C@H](C)[C@@H](O)CC1=O)[C@H](C)C[C@@H]2OC` [FK506]: in the data set on CN [1], the “effect on rate of pNpp hydrolysis” value is reported as “rate increases”.
